From the supplement of paper PMC6004109

Tests used:
Conditions in all cases: temperature: 37 °C
[1] = system: Candida glabrata ZIM 2382 (RPMI); test: FICI minimum (fractional inhibitory concentration index, Loewe) (dimensionless); higher = less synergy / more antagonism
Description: (§1)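 CLSI M27-A3 checkerboard broth microdilution of an immunomodulatory drug (or amoxicillin) combined with an antifungal against S. cerevisiae and C. glabrata isolates. Growth was read as OD600 after incubation at 37 °C (48 h for the reported MICs). Reported quantities are the FICI (Loewe: MIC50 for azoles and immunomodulators, MIC90 for AMB; ≤0.5 synergy, ≥4 antagonism), as minimum and maximum over the surface, and the Bliss-independence sum of statistically significant ΔE (positive = synergy). Clinical isolates were tested in RPMI; C. glabrata ATCC 2001 and its pdr1Δ mutant were tested in YPD.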

[2] = system: Saccharomyces cerevisiae ZIM 2255 (RPMI); test: as above
Description: as §1

[3] = system: Saccharomyces cerevisiae ZIM 2260 (RPMI); test: as above
Description: as §1

[4] = system: Candida glabrata ZIM 2389 (RPMI); test: as above
Description: as §1

[5] = system: Saccharomyces cerevisiae ZIM 2269 (RPMI); test: as above
Description: as §1

[6] = system: Candida glabrata ZIM 2365 (RPMI); test: as above
Description: as §1

[7] = system: Candida glabrata ZIM 2385 (RPMI); test: as above
Description: as §1

[8] = system: Candida glabrata ZIM 2369 (RPMI); test: as above
Description: as §1

[9] = system: Saccharomyces cerevisiae ZIM 2566 (RPMI); test: as above
Description: as §1

[10] = system: Saccharomyces cerevisiae ZIM 2247 (RPMI); test: as above
Description: as §1

[11] = system: Saccharomyces cerevisiae ZIM 2558 (RPMI); test: as above
Description: as §1

[12] = system: Candida glabrata ZIM 2344 (RPMI); test: as above
Description: as §1

[13] = system: Saccharomyces cerevisiae ZIM 2269 (RPMI); test: Bliss independence sum of statistically significant ΔE (measured minus predicted growth inhibition) over checkerboard surface (fraction (sum of ΔE; 1 = 100%)); higher = more synergy
[14] = system: Candida glabrata ZIM 2385 (RPMI); test: as above
[15] = system: Saccharomyces cerevisiae ZIM 2247 (RPMI); test: as above
[16] = system: Candida glabrata ZIM 2344 (RPMI); test: as above
[17] = system: Candida glabrata ZIM 2382 (RPMI); test: FICI maximum (fractional inhibitory concentration index, Loewe) (dimensionless); higher = less synergy / more antagonism
Description: as §1

[18] = system: Saccharomyces cerevisiae ZIM 2255 (RPMI); test: as above
Description: as §1

[19] = system: Saccharomyces cerevisiae ZIM 2260 (RPMI); test: as above
Description: as §1

[20] = system: Candida glabrata ZIM 2389 (RPMI); test: as above
Description: as §1

[21] = system: Saccharomyces cerevisiae ZIM 2269 (RPMI); test: as above
Description: as §1

[22] = system: Candida glabrata ZIM 2365 (RPMI); test: as above
Description: as §1

[23] = system: Candida glabrata ZIM 2385 (RPMI); test: as above
Description: as §1

[24] = system: Candida glabrata ZIM 2369 (RPMI); test: as above
Description: as §1

[25] = system: Saccharomyces cerevisiae ZIM 2566 (RPMI); test: as above
Description: as §1

[26] = system: Saccharomyces cerevisiae ZIM 2247 (RPMI); test: as above
Description: as §1

[27] = system: Saccharomyces cerevisiae ZIM 2558 (RPMI); test: as above
Description: as §1

[28] = system: Candida glabrata ZIM 2344 (RPMI); test: as above
Description: as §1

Structure (SMILES)	FICI minimum [1]	FICI minimum [2]	FICI minimum [3]	FICI minimum [4]	FICI minimum [5]	FICI minimum [6]	FICI minimum [7]	FICI minimum [8]	FICI minimum [9]	FICI minimum [10]	FICI minimum [11]	FICI minimum [12]	Bliss independence sum [13]	Bliss independence sum [14]	Bliss independence sum [15]	Bliss independence sum [16]	FICI maximum [17]	FICI maximum [18]	FICI maximum [19]	FICI maximum [20]	FICI maximum [21]	FICI maximum [22]	FICI maximum [23]	FICI maximum [24]	FICI maximum [25]	FICI maximum [26]	FICI maximum [27]	FICI maximum [28]
CN(Cc1cnc2nc(N)nc(N)c2n1)c1ccc(C(=O)N[C@@H](CCC(=O)O)C(=O)O)cc1 [methotrexate] + CCC(C)n1ncn(-c2ccc(N3CCN(c4ccc(OCC5COC(Cn6cncn6)(c6ccc(Cl)cc6Cl)O5)cc4)CC3)cc2)c1=O [itraconazole]	1	1	1.08	1	1	0.505	0.505	1	1	0.505	0.656	1	-0.796	-0.777	0.35	-0.688	2.16	1.08	2.04	2.04	1.16	1.16	2.16	1.16	1.16	1.16	1.08	1.16
CC1(C)S[C@@H]2[C@H](NC(=O)[C@H](N)c3ccc(O)cc3)C(=O)N2[C@H]1C(=O)O [amoxicillin] + CCC(C)n1ncn(-c2ccc(N3CCN(c4ccc(OCC5COC(Cn6cncn6)(c6ccc(Cl)cc6Cl)O5)cc4)CC3)cc2)c1=O [itraconazole]	1.01	1.01	1.01	1.01	1	0.562	1.01	1.01	1.01	0.508	0.508	0.0703	0.212	-0.894	-3.04	3	2.25	1.25	1.25	1.25	1.25	1.25	1.25	1.25	2.12	1.25	0.75	0.375
COc1c(C)c2c(c(O)c1C/C=C(\C)CCC(=O)O)C(=O)OC2 [mycophenolic acid] + C[C@@H]1[C@H](O)[C@@H](C)/C=C/C=C/C=C/C=C/C=C/C=C/C=C/[C@H](O[C@@H]2O[C@H](C)[C@@H](O)[C@H](N)[C@@H]2O)C[C@@H]2O[C@](O)(C[C@@H](O)C[C@@H](O)[C@H](O)CC[C@@H](O)C[C@@H](O)CC(=O)O[C@H]1C)C[C@H](O)[C@H]2C(=O)O [amphotericin B]	0.5	1	0.58	0.531	1.03	0.5	0.5	0.75	0.633	0.767	0.375	0.625	6.09	2.79	-2.18	4.74	1.06	1.25	1.04	1.01	1.25	1.02	1.06	1.12	1.07	1.53	1.03	1.06
C=CC[C@@H]1/C=C(\C)C[C@H](C)C[C@H](OC)[C@H]2O[C@@](O)(C(=O)C(=O)N3CCCC[C@H]3C(=O)O[C@H](/C(C)=C/[C@@H]3CC[C@@H](O)[C@H](OC)C3)[C@H](C)[C@@H](O)CC1=O)[C@H](C)C[C@@H]2OC [tacrolimus] + OC(Cn1cncn1)(Cn1cncn1)c1ccc(F)cc1F [fluconazole]	0.5	0.156	0.135	0.253	0.255	1	1	0.5	0.135	0.126	0.135	0.25	8.35	5.34	8.81	4.23	0.5	1	1	1	1	1	1.01	1	1	1	1	0.5
